Literature values in US20130315977A1, “TRANSDERMAL PATCH” (priority 2011, published 2013).

Columns and labels:
[1] = molecular target: dopamine D2 (Homo sapiens, UniProt P14416); conditions: as compared to haloperidol
[2] = system: serotonin 5-HT2 receptor; conditions: as compared to haloperidol

Sequence of dopamine D2 (P14416 whole entry): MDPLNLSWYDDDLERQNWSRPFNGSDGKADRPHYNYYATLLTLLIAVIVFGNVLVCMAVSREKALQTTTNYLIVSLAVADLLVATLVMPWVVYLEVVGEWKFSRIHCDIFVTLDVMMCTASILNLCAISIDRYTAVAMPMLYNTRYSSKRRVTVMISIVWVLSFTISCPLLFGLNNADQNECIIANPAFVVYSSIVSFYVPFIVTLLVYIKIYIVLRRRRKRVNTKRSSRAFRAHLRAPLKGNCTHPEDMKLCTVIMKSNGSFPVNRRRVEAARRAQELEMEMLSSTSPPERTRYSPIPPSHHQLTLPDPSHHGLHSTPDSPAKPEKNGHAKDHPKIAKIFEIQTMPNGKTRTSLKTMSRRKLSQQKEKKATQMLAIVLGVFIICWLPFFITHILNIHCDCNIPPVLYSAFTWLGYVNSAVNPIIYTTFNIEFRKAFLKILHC

CCN1CCN(c2cc(-c3ccc(F)cc3)c3c(n2)CCCCCC3)CC1 [Blonanserin, 2-(4-ethyl-1-piperazinyl)-4-(4-fluorophenyl)-5,6,7,8,9,10-hexahydrocycloocta[b]pyridine]
affinity for dopamine D2 [1]: high affinity
affinity for serotonin 5-HT2 receptor [2]: high affinity
